System: Aedes albopictus
Assay: Larvicidal activity against Aedes albopictus assessed as […] larval mortality after 24 hrs
Format: functional

SMILES | LC50
O=C1CCC2(Oc3cccc4cccc(c34)O2)c2c(Cl)ccc(O)c21 | 227 µM
O=C1CCC2(Oc3cccc4cccc(c34)O2)c2ccc(Cl)c(O)c21 | 32.7 µM

Reference: ChEMBL document CHEMBL4196143, “Total Synthesis and Structure Revision of Palmarumycin B6” (2018)
